According to patent US10302644B2, “Compositions and methods for treating multiple myeloma” (Dana-Farber Cancer Institute, Inc., priority 2014, dated 2019):

Assays:
MM cells = assay: Growth inhibition assay (MTT) / viable cell count (Trypan-blue); assay type: cell-based
Description: Cell growth was assessed by measuring 3-(4,5-dimethylthiazol-2-yl)-2,5-diphenyl […] bromide (MTT, Chemicon International, Temecula, Calif.) dye absorbance. Cells were pulsed with 10 μl of 5 mg/ml MTT to each well for the last 4 h of 48 h and/or 72 h cultures, followed by 100 μl isopropanol containing 0.04N HCl. Absorbance was measured at 570/630 nm using a spectrophotometer (Molecular Devices Corp., Sunnyvale Calif.).

p53 [1] = assay: Immunoblotting of p53 and phosphorylated p53 in MM cells; assay type: cell-based
Description: (§1) MM cells were harvested and lysed using RIPA-lysis buffer (Boston Bioproducts, Ashland, Mass.) containing 5 mM EDTA, 5 mM NaF, 2 mM Na3VO4, 1 mM PMSF, 5 μg/ml leupeptin, and 5 μg/ml aprotinin. Nuclear proteins were extracted using “Nuclear Extraction Kit” (Affimetrix). After the determination of protein concentration using DC protein assay (Bio-Rad, Hercules, Calif.), β-mercaptoethanol (-ME) was added to the whole-cell lysates to a 2% final concentration. The whole cell lysates or nuclear extracts were subjected to SDS-PAGE, transferred to nitrocellulose membranes (Bio-Rad, Hercules, Calif.) or polyvinylidene fluoride membranes (Millipore, Billerica, Mass.), and immunoblotted with indicated Abs. Silver staining was carried out using “SilverQuest Staining Kit®” (Invitrogen), according to manufacturer's protocol.

p53 [2] = assay: p53 DNA binding activity assay; assay type: cell-based; conditions: MM.1S and H929 cells, 48 h
Description: E2F1 DNA binding activity was assessed by electrophoretic mobility shift assay (EMSA) using “EMSA Gel Shift Kit®” from Affimetrix (Santa Clara, Calif.), and p53 DNA binding activity was performed using “p53 Transcription Factor Assay Kit®” from Cayman Chemical (Ann Arbor, Mich.). Experiments were carried out according to manufacturer's protocols.

Chk1, ATM, ATR, Chk2 = assay: Immunoblotting of DNA damage kinase phosphorylation; assay type: cell-based; conditions: MM.1S cells, 48 h
Description: as §1

[3] = system: LC3-II, Bim, PARP, MDM2, XIAP, cIAP, p-p70S6K; assay: Immunoblotting/qPCR of autophagy and apoptosis proteins in MM cells; assay type: cell-based; conditions: MM.1S cells, 2.5 μM, 48 h
Description: as §1
(§2) RNA was extracted using Trizol (Invitrogen) and quantified by a Nanodrop spectrophotometer (Labtech). Specifically, 5×10^6 cells were pelleted, washed with cold PBS, and resuspended in 1 mL Trizol. They were then incubated with 1-Bromo-3-chloropropane (Sigma), washed first with Isopropyl alcohol and then with 75% Ethanol, and resuspended in Nuclease Free-water (Invitrogen). After quantification, 2000 ng of RNA was used to synthesize cDNA via the Superscript II First strand synthesis Kit (Invitrogen), according to the manufacturer's instructions. To evaluate the expression levels of TP53RK, BCL2L11, MYC, Bim, E2F1, TP53, IKZF1, IKZF3, RRM1, p18CDKN2C, PSMB5, PSMB7, PSMA3 and GAPDH, quantitative real time PCR (QRT-PCR) was performed using SYBR GREEN PCR Master Mix (Applied Biosystem), after optimization of the primer conditions. cDNAs were diluted 1:100 or 1:1000 and amplified in a 20 μL reaction. Primers were used at 200 nM or 400 nM concentration. Thermal cycling conditions were: 10 minutes at 95° C., 40 cycles at 95° C. for 15 seconds, followed by 1 minute at 60° C. Real-time quantitative PCR was performed on ABI Prism 7300 Sequence Detection System (Applied Biosystems). Data were analyzed using the delta delta Ct method. GAPDH was used as an invariant control.

E2F1 = E2F1 DNA binding activity (EMSA), protein and mRNA; assay type: cell-based; conditions: MM cells
Description: MM cells were harvested and lysed using RIPA-lysis buffer (Boston Bioproducts, Ashland, Mass.) containing 5 mM EDTA, 5 mM NaF, 2 mM Na3VO4, 1 mM PMSF, 5 μg/ml leupeptin, and 5 μg/ml aprotinin. Nuclear proteins were extracted using “Nuclear Extraction Kit” (Affimetrix). After the determination of protein concentration using DC protein assay (Bio-Rad, Hercules, Calif.), β-mercaptoethanol (-ME) was added to the whole-cell lysates to a 2% final concentration. […]
RNA was extracted using Trizol (Invitrogen) and quantified by a Nanodrop spectrophotometer (Labtech). […] After quantification, 2000 ng of RNA was used to synthesize cDNA via the Superscript II First strand synthesis Kit (Invitrogen), according to the manufacturer's instructions. To evaluate the expression levels of TP53RK, BCL2L11, MYC, Bim, E2F1, TP53, IKZF1, IKZF3, RRM1, p18CDKN2C, PSMB5, PSMB7, PSMA3 and GAPDH, quantitative real time PCR (QRT-PCR) was performed using SYBR GREEN PCR Master Mix (Applied Biosystem), after optimization of the primer conditions. cDNAs were diluted 1:100 or 1:1000 and amplified in a 20 μL reaction. […] Real-time quantitative PCR was performed on ABI Prism 7300 Sequence Detection System (Applied Biosystems). Data were analyzed using the delta delta Ct method. […]

RRM1, p18CDKN2C = assay: RRM1 and p18CDKN2C expression (RT-qPCR, Western blot); assay type: cell-based; conditions: H929 cells
Description: as §1, §2

hTERT [4] = assay: hTERT expression and telomerase activity (TeloTAGGG Telomerase PCR ELISA); assay type: cell-based; conditions: MM.1S cells and H929 cells
Description: as §1
Telomerase activity in MM.1S and H929 cells was assessed by “TeloTAGGG Telomerase PCR ELISA®” from Roche Applied Science (Mannheim, Germany).

p53 target genes = assay: GEP analysis of patient MM cells before and after lenalidomide treatment; assay type: in vivo, human; conditions: patient MM cells treated with Len; *p < 0.05
Excerpt: Expression data for plasma cells from healthy donors, monoclonal gammopathy of undetermined significance (MGUS), and smoldering myeloma (SMM) were derived from GSE5900 dataset, while expression data from normal plasma cells and 65 MM patients were obtained from GSE4452 dataset, using expression profiling on Affymetrix GeneChip (t test, unpaired, equal variance). […] Data were then normalized and analyzed using D-chip software, seeking statistically significant differences among groups or in p53-target gene expression. Statistical significance was determined by Student t test. The minimal level of significance was P<0.05. […] Gene set enrichment analysis (GSEA) was performed as previously described (2) (GSEA v2.0 at http://www.broad.mit.edu/gsea) using gene set as permutation type, as well as 1,000 permutations and signal to noise as metrics for ranking genes.

hTERT [5] = assay: Comparative hTERT expression analysis in matched MM patient samples (GSE8546); assay type: in vivo, human; conditions: matched samples before and after Len, GSE8546 dataset

SMILES: Nc1cccc2c1CN(C1CCC(=O)NC1=O)C2=O (stereo not drawn) [Len, lenalidomide]
- drug-triggered growth inhibition in kinase-dead D163A TP53RK transfectants (MM cells; H929 cells, 48 h): abrogated
- sensitivity of MM cell lines to drug (MM cells; MM.1S and H929 cells with wt-p53 versus cell lines with mutant p53): more sensitive
- drug-triggered cell death after CRBN knock-down (MM cells; OPM2 cells (mutant p53) and H929 cells (wt-p53)): only partially abrogates
- p53 phosphorylation at Ser20 and Ser37 (p53 [1]; MM.1S cells, 2.5 μM, 48 h): no change
- phosphorylated (p-Ser15)-p53 and p53 levels (p53 [1]; MM.1S cells, 2.5 μM, 48 h): downregulated
- Nut3-induced upregulation of p-p53 and p53 (p53 [1]; MM.1S cells, Len or Pom 2.5 μM with Nutlin-3a 0.5 μM, 48 h): inhibited
- p-p53/p53 downregulation (p53 [1]; nuclear extracts from MM.1S and H929 cell lines, patient MM cells): further confirmed
- p53 activity (p53 DNA binding) (p53 [2]): block
- phosphorylation of ATM, ATR or Chk2 (Chk1, ATM, ATR, Chk2): not
- phosphorylation of Chk1 (Chk1, ATM, ATR, Chk2): inhibited
- LC3-II level [3]: upregulation
- E2F1 (E2F1): increases
- RRM1 expression (RRM1, p18CDKN2C): downregulate
- p18CDKN2C expression (RRM1, p18CDKN2C): upregulate
- hTERT expression (hTERT [4]): significantly inhibited
- telomerase (hTERT) activity (hTERT [4]): significantly inhibited
- BID expression change (p53 target genes): ↓
- CCNA1 expression change (p53 target genes): ↓
- CCNA2 expression change (p53 target genes): ↓
- CCNE2 expression change (p53 target genes): ↓
- CCNG1 expression change (p53 target genes): ↓
- CCR5 expression change (p53 target genes): ↓
- CDC25B expression change (p53 target genes): ↑
- CDKN3 expression change (p53 target genes): ↓
- CTSL2 expression change (p53 target genes): ↑
- CUL1 expression change (p53 target genes): ↓
- DDX3X expression change (p53 target genes): ↑*
- DDX11 expression change (p53 target genes): ↓
- DLEC1 expression change (p53 target genes): ↓
- FGFR3 expression change (p53 target genes): ↓
- HLA-C expression change (p53 target genes): ↑
- ILR6 expression change (p53 target genes): ↓
- ITM2B expression change (p53 target genes): ↑*
- JUND expression change (p53 target genes): ↓
- KRAS expression change (p53 target genes): ↑*
- LAPTM5 expression change (p53 target genes): ↑
- MAP2K6 expression change (p53 target genes): ↓*
- MKI67 expression change (p53 target genes): ↓
- MSX1 expression change (p53 target genes): ↓
- MYBL2 expression change (p53 target genes): ↓*
- MYC expression change (p53 target genes): ↓
- RAD21 expression change (p53 target genes): ↑
- RAD51C expression change (p53 target genes): ↓
- RHOH expression change (p53 target genes): ↑*
- RRM1 expression change (p53 target genes): ↓*
- RRM2 expression change (p53 target genes): ↓*
- SEC61A1 expression change (p53 target genes): ↑*
- SMC4 expression change (p53 target genes): ↑
- STAT3 expression change (p53 target genes): ↑
- TEAD3 expression change (p53 target genes): ↓
- UBC expression change (p53 target genes): ↑*
- XPC expression change (p53 target genes): ↑
- ZNF330 expression change (p53 target genes): ↓
- hTERT levels in MM patient samples after treatment (hTERT [5]): lower
